The results in this text go back to US8859572B2, “Sulfone substituted 2,3-dihydroimidazo [1,2-C] quinazoline derivatives useful for treating hyper-proliferative disorders and diseases with angiogenesis” (Bayer Intellectual Property GmbH, priority 2008, dated 2014).

Usually IC50 stands for the concentration needed to halve the response being measured.

Each structure is given as a SMILES string.

The test deals with T1, PI3Kβ (recombinant truncated form (ΔN1-108) of the human p110β subunit of PI3K) (Homo sapiens, UniProt P42338).
T1 construct: His6 (N); made in house; host or cells: Spodoptera frugiperda Sf9 insect cells
T1 sequence (P42338 109-1070): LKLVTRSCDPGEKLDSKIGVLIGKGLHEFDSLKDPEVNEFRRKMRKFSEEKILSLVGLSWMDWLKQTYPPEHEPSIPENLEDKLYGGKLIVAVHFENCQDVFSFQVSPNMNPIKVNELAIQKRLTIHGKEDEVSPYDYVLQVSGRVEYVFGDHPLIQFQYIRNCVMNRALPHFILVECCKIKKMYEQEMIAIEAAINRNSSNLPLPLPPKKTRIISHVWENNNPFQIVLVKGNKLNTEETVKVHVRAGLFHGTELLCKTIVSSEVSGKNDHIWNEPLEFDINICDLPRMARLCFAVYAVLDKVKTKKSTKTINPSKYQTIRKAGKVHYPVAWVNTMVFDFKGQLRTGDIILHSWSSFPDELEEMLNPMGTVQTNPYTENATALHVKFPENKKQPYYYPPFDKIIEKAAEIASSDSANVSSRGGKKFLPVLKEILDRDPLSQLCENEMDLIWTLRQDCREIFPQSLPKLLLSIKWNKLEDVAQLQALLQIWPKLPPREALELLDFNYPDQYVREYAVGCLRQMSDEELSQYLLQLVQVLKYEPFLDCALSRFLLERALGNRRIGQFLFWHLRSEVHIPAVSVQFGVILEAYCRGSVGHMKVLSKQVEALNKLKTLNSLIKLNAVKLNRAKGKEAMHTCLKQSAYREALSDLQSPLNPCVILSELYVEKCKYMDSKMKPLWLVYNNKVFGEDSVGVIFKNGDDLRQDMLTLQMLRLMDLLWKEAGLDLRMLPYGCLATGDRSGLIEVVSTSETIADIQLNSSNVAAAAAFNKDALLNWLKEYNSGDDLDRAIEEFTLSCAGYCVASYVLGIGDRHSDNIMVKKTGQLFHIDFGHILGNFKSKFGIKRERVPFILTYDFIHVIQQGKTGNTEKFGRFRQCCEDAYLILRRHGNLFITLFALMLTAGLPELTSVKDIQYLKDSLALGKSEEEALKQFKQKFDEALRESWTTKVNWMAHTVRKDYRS
The test can be described thus: Solid-phase lipid kinase assay of PI3Kβ. It counts as biochemical. The note with it: 7.5 ng protein/well, final 10 μM ATP, 2 h at rt. As to the method:
To assess inhibition of PI3Kα by compounds, the Maxisorp™ plates were coated with 50 μL/well of a solution containing 50 μg/ml PtdIns and 50 μg/ml PtdSer dissolved in chloroform:ethanol (3:7). The plates were subsequently air-dried by incubation for at least 2 h in a fume hood. The reaction was set up by mixing 25 μL/well of assay buffer 2×(100 mM MOPSO/NaOH, 0.2 M NaCl, pH 7.0, 8 mM MgCl2, 2 mg/mL BSA (fatty acid-free)), and 7.5 ng/well PI3Kα in the lipid pre-coated plate. Test compounds at different concentrations (0.0, 0.003, 0.01 0.03, 0.1, 0.3, 1.0, 3.0 and 10 μM) were added in 2% DMSO. The reaction was initiated by adding 20 μL/well of ATP mix (final 10 μM ATP; 0.05 μCi/well [γ^33P]ATP). After incubation at rt for 2 h, the reaction was terminated by adding 50 μl/well stop solution (50 mM EDTA, pH 8.0). The plate was then washed twice with Tris-buffered saline (TBS, pH 7.4). MicroScint PS™ (PACKARD) scintillation mix was added at 100 μL/well, and radioactivity was counted using a TopCount™ (PACKARD) scintillation counter.
The inhibition percent at each concentration of compound was calculated, and IC50 values were determined from the inhibition of curve.
A recombinant truncated form (ΔN1-108) of the human p110β subunit of PI3K with an N-terminal His6-Tag was expressed in S. frugiperda 9 insect cells. Recombinant human PI3Kγ (full length human PI3K p110γ fused with a His6-tag at the C-terminus expressed in S. frugiperda 9 insect cells) was obtained from ALEXIS BIOCHEMICALS (#201-055-0010; San Diego, Calif.).
Kinase assays using recombinant truncated p110β or the full length p110γ were performed in a similar manner as described in the determination of IC50 values of compounds in the kinase assay of PI3Kα except that these isoforms were assayed using 7.5 ng and 25.0 ng of protein/well, respectively.

With `O=C(NC1=Nc2cc(OCCCS(=O)(=O)N3CCOCC3)ccc2C2=NCCN12)c1cncnc1` [Example 28, N-{8-[3-(morpholin-4-ylsulfonyl)propoxy]-2,3-dihydroimidazo[1,2-c]quinazolin-5-yl}pyrimidine-5-carboxamide], the IC50 fell in the range of 100 to 3000 nM. In the case of `Nc1ncc(C(=O)NC2=Nc3cc(OCCCS(=O)(=O)N4CCOCC4)ccc3C3=NCCN23)cn1` [Example 29, 2-amino-N-{8-[3-(morpholin-4-ylsulfonyl)propoxy]-2,3-dihydroimidazo[1,2-c]quinazolin-5-yl}pyrimidine-5-carboxamide] it was under 100 nM; in that of `Nc1ccc(C(=O)NC2=Nc3cc(OCCCS(=O)(=O)N4CCOCC4)ccc3C3=NCCN23)cn1` [Example 30, 6-amino-N-{8-[3-(morpholin-4-ylsulfonyl)propoxy]-2,3-dihydroimidazo[1,2-c]quinazolin-5-yl}nicotinamide], 100 to 3000 nM. Take `COc1c(OCCOCCNS(C)(=O)=O)ccc2c1N=C(NC(=O)c1cccnc1)N1CCN=C21` [Example 31, N-[7-methoxy-8-(2-{2-[(methylsulfonyl)amino]ethoxy}ethoxy)-2,3-dihydroimidazo[1,2-c]quinazolin-5-yl]nicotinamide]: the IC50 is under 100 nM. In the case of `CCCS(=O)(=O)NCCOCCOc1ccc2c(c1OC)N=C(NC(=O)c1cccnc1)N1CCN=C21` [Example 32], the IC50 was under 100 nM. In the case of `COc1c(OCCOCCNS(=O)(=O)c2ccccc2)ccc2c1N=C(NC(=O)c1cccnc1)N1CCN=C21` [Example 33, N-[7-methoxy-8-(2-{2-[(phenylsulfonyl)amino]ethoxy}ethoxy)-2,3-dihydroimidazo[1,2-c]quinazolin-5-yl]nicotinamide], the IC50 was under 100 nM.

On to `COc1c(OCCOCCNS(=O)(=O)c2ccc(C)cc2)ccc2c1N=C(NC(=O)c1cccnc1)N1CCN=C21` [Example 34, N-{7-methoxy-8-[2-(2-{[(4-methylphenyl)sulfonyl]amino}ethoxy)ethoxy]-2,3-dihydroimidazo[1,2-c]quinazolin-5-yl}nicotinamide], for which the 50% inhibitory concentration (IC50) is under 100 nM.

Take `CCS(=O)(=O)NCCCOc1ccc2c(c1OC)N=C(NC(=O)c1cccnc1)N1CCN=C21` [Example 35, N-(8-[3-[(ethylsulfonyl)amino]propoxy]-7-methoxy-2,3-dihydroimidazo[1,2-c]quinazolin-5-yl)nicotinamide]: the 50% inhibitory concentration (IC50) was under 100 nM. Regarding `CS(=O)(=O)c1ccc(COc2c(OCCCN3CCOCC3)ccc3c2N=C(NC(=O)c2cccnc2)N2CCN=C32)cc1` [Example 36, N-[7-{[4-(methylsulfonyl)benzyl]oxy}-8-(3-morpholin-4-ylpropoxy)-2,3-dihydroimidazo[1,2-c]quinazolin-5-yl]nicotinamide], the IC50 is under 100 nM. Take `CS(=O)(=O)Oc1c(OCCCN2CCOCC2)ccc2c1N=C(NC(=O)c1cccnc1)N1CCN=C21` [Example 37, 8-(3-morpholin-4-ylpropoxy)-5-[(pyridin-3-ylcarbonyl)amino]-2,3-dihydroimidazo[1,2-c]quinazolin-7-yl methanesulfonate]: the 50% inhibitory concentration (IC50) is under 100 nM.
